Literature values, collected in patent US7838691B2, “Palmerolides: methods of preparation and derivatives thereof” (Board of Regents, of the University of Texas System, priority 2007, dated 2010).

What was measured:
[1] = test system: several cancer cell lines including melanoma, colon cancer, and renal cancer
bovine brain V-ATPase = details: in vitro

SMILES: CC(C)=CC(=O)N/C=C/C(C)=C/[C@@H](C)[C@H]1C/C(C)=C/C=C/CC[C@H](OC(N)=O)[C@@H](O)/C=C/[C@@H](O)CCC/C=C/C(=O)O1 [Palmerolide A]
- cytotoxicity [1]: selective cytotoxin
- IC50 (bovine brain V-ATPase): ~2 nM
